Data from ChEMBL document CHEMBL6121019, “Design, synthesis and biological evaluation of bisnoralcohol derivatives as novel IRF4 inhibitors for the treatment of multiple myeloma” (Eur J Med Chem, 2025).
The source made the active and inactive calls. The rule behind the calls is not given here.

Assays:
[1] = test system: NCI-H929; assay: Antitumor activity against human NCI-H929 cells xenografted in Balb/C nude mouse model assessed as inhibition of ERK phosphorylation level at 25 mg/kg by Western blot analysis; type: functional, organism-based
[2] = test system: NCI-H929; assay: Induction of cell cycle arrest in human NCI-H929 cells assessed as inhibition of CDC2 protein expression at 0.1 to 1 uM; type: functional, cell-based; conditions: dose 0.1-1 µM
[3] = Tmax in ICR mouse plasma at 10 mg/kg, po; type: ADME, organism-based
[4] = Antiproliferative activity against human HAF cells assessed as inhibition of cell viability measured after 72 hrs by MTS assay; type: toxicity, cell-based
[5] = test system: NCI-H929; assay: Induction of cell cycle arrest in human NCI-H929 cells assessed as accumulation of cells at G1 phase at 0.25 uM measured after 24 hrs by flow cytometry analysis (reference value: 54.12%); type: functional
[6] = AUC (0 to t) in ICR mouse plasma at 1.0 mg/kg, iv; type: ADME, organism-based
[7] = test system: NCI-H929; assay: Antiproliferative activity against human NCI-H929 cells with siRNA mediated IRF4 knockdown measured upto 5 days by MTS assay; type: functional, cell-based; conditions: time <= 5.0 day
[8] = AUC (0 to infinity) in ICR mouse plasma at 1.0 mg/kg, iv; type: ADME, organism-based
[9] = Toxicity in Balb/C nude mouse assessed as side effects at 12.5 to 25 mg/kg administered once daily and measured every three days for 34 days by H and E staining based analysis; type: organism-based; conditions: in vivo, 816 h, dose 12.5-25 mg/kg, time 34 day
[10] = AUC (0 to t) in ICR mouse plasma at 10 mg/kg, po; type: ADME, organism-based
[11] = test system: NCI-H929; assay: Induction of cell cycle arrest in human NCI-H929 cells assessed as inhibition of cyclin E1 protein expression at 0.1 to 1 uM; type: functional, cell-based; conditions: dose 0.1-1 µM
[12] = test system: MM.1R; assay: Antiproliferative activity against human MM1.R cells with siRNA mediated IRF4#2 knockdown at 0.125 to 1 uM measured upto 5 days by MTS assay; type: functional, cell-based; conditions: dose 0.125-1 µM, time <= 5.0 day
[13] = test system: NCI-H929; assay: Antiproliferative activity against human NCI-H929 cells assessed as inhibition of cell viability measured after 72 hrs by MTS assay; type: functional, cell-based; conditions: NCI-H929, 72 h
[14] = test system: NCI-H929; assay: Downregulation of CCNC expression in human NCI-H929 cells measured after 24 hrs by qRT-PCR analysis; type: functional, cell-based; conditions: dose 0.125-1 µM
[15] = test system: NCI-H929; assay: Induction of cell cycle arrest in human NCI-H929 cells assessed as inhibition of cyclin B1 protein expression at 0.1 to 1 uM; type: functional, cell-based; conditions: dose 0.1-1 µM
[16] = test system: NCI-H929; assay: Downregulation of HK2 expression in human NCI-H929 cells measured after 24 hrs by qRT-PCR analysis; type: functional, cell-based; conditions: dose 0.125-1 µM
[17] = test system: NCI-H929; assay: Induction of cell cycle arrest in human NCI-H929 cells assessed as accumulation of cells at G2 phase at 0.125 uM measured after 24 hrs by flow cytometry analysis (reference value: 13.37%); type: functional

Tmax [3]: 31.8 min
AUC(0-t) [6]: 81 ng·h/mL
AUC(0-inf) [8]: 86 ng·h/mL
AUC(0-t) [10]: 285 ng·h/mL
IC50 [13]: 80 nM
SMILES: COc1ccc(NC(=O)[C@@H](C)[C@H]2CC[C@H]3[C@@H]4C(=O)C=C5C(C)(C)C(=O)C(C#N)=C[C@]5(C)[C@H]4CC[C@]23C)cc1
Activity [1]: Active
Activity [2]: Active
IC50 at 72 h [4]: > 100000 nM
Activity [5]: 60.31%
Activity [7]: Active
Activity [9]: Non-toxic
Activity [11]: Active
Activity [12]: Active
Activity [14]: Active
Activity [15]: Active
Activity [16]: Active
Activity [17]: 11.45%
